Assays:
Format in all cases: in vivo
Solanum nigrum (SOLNI) [1] = experiment: B5 Pre-Emergence Efficacy—Test 2; details: 250 g/ha, evaluated after 13 days
Method in brief: (§1)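 Compounds are applied pre-emergence at 250 g/ha, one day after sowing, in an aqueous acetone/water spray carrying 0.5% Tween 20. Damage is assessed 13 days later and scored from 1 (0-19%) to 5 (80-100%).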

[2] = test system: Amaranthus retoflexus (AMARE); experiment: B5 Pre-Emergence Efficacy—Test 2; details: 250 g/ha, evaluated after 13 days
Method in brief: as §1

Lolium perenne (LOLPE) [3] = experiment: B5 Pre-Emergence Efficacy—Test 2; design: key: 5-point scale: 5=80-100%, 4=60-79%, 3=40-59%, 2=20-39%, 1=0-19% damage; details: 250 g/ha, evaluated after 13 days
Method in brief: as §1

[4] = test system: Ipomoea hederacea (IPOHE); experiment: B5 Pre-Emergence Efficacy—Test 2; design: key: 5-point scale: 5=80-100%, 4=60-79%, 3=40-59%, 2=20-39%, 1=0-19% damage; details: 250 g/ha, evaluated after 13 days
Method in brief: as §1

[5] = test system: Echinochloa crus-galli (ECHCG); experiment: B5 Pre-Emergence Efficacy—Test 2; design: key: 5-point scale: 5=80-100%, 4=60-79%, 3=40-59%, 2=20-39%, 1=0-19% damage; details: 250 g/ha, evaluated after 13 days
Method in brief: as §1

Setaria faberi (SETFA) [6] = experiment: B5 Pre-Emergence Efficacy—Test 2; design: key: 5-point scale: 5=80-100%, 4=60-79%, 3=40-59%, 2=20-39%, 1=0-19% damage; details: 250 g/ha, evaluated after 13 days
Method in brief: as §1

Lolium perenne (LOLPE) [7] = experiment: B2 Post-Emergence Efficacy—Test 2; details: post-emergence application, 250 g/ha, evaluated after 13 days (Test 2)
Method in brief: (§2)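 Pot-grown plants sprayed post-emergence 8 days after sowing at 250 g/ha (acetone/water 50:50, 0.5% Tween 20), glasshouse 24/16 °C, 14 h light, 65% humidity. Percentage damage scored after 13 days on a five-point scale (5=80-100% to 1=0-19%).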

[8] = test system: Ipomoea hederacea (IPOHE); experiment: B2 Post-Emergence Efficacy—Test 2; details: post-emergence application, 250 g/ha, evaluated after 13 days (Test 2)
Method in brief: as §2

Solanum nigrum (SOLNI) [9] = experiment: B2 Post-Emergence Efficacy—Test 2; details: post-emergence application, 250 g/ha, evaluated after 13 days (Test 2)
Method in brief: as §2

[10] = test system: Echinochloa crus-galli (ECHCG); experiment: B2 Post-Emergence Efficacy—Test 2; details: post-emergence application, 250 g/ha, evaluated after 13 days (Test 2)
Method in brief: as §2

[11] = test system: Amaranthus retoflexus (AMARE); experiment: B2 Post-Emergence Efficacy—Test 2; details: post-emergence application, 250 g/ha, evaluated after 13 days (Test 2)
Method in brief: as §2

Setaria faberi (SETFA) [12] = experiment: B2 Post-Emergence Efficacy—Test 2; details: post-emergence application, 250 g/ha, evaluated after 13 days (Test 2)
Method in brief: as §2

Row | SMILES | Control of weed species after pre-emergence application, SOLNI (percentage damage, five point scale) (Solanum nigrum (SOLNI) [1]) | Control of weed species after pre-emergence application, AMARE (percentage damage, five point scale) [2] | Control of weed species after pre-emergence application, LOLPE (percentage damage, five point scale) (Lolium perenne (LOLPE) [3]) | Control of weed species after pre-emergence application, IPOHE (percentage damage, five point scale) [4] | Control of weed species after pre-emergence application, ECHCG (percentage damage, five point scale) [5] | Control of weed species after pre-emergence application, SETFA (percentage damage, five point scale) (Setaria faberi (SETFA) [6]) | percentage damage caused to the plant, five point scale, LOLPE (Lolium perenne (LOLPE) [7]) | percentage damage caused to the plant, five point scale, IPOHE [8] | percentage damage caused to the plant, five point scale, SOLNI (Solanum nigrum (SOLNI) [9]) | percentage damage caused to the plant, five point scale, ECHCG [10] | percentage damage caused to the plant, five point scale, AMARE [11] | percentage damage caused to the plant, five point scale, SETFA (Setaria faberi (SETFA) [12])
1 | Cc1nn(C)c(=O)c(-c2c(F)ccc(Cl)c2/C=C/c2ccc(O)cc2)c1O [Compound A-2.037] | 0 | 0 | 1 (1=0-19%) | 1 (1=0-19%) | 0 | 1 (1=0-19%) | 1 (1=0-19%) | 2 (2=20-39%) | 2 (2=20-39%) | 2 (2=20-39%) | 1 (1=0-19%) | 1 (1=0-19%)
2 | CCN(C)C(=O)c1ccc(CCc2c(Cl)ccc(F)c2-c2c(OC(=O)C(C)C)c(C)nn(C)c2=O)cc1F [Compound A-3.028, [5-[3-Chloro-2-[2-[4-[ethyl(methyl)carbamoyl]-3-fluoro-phenyl]ethyl]-6-fluoro-phenyl]-1,3-dimethyl-6-oxo-pyridazin-4-yl] 2-methylpropanoate] | 5 (5=80-100%) | 5 (5=80-100%) | 5 (5=80-100%) | 5 (5=80-100%) | 5 (5=80-100%) | 5 (5=80-100%) | 5 (5=80-100%) | 5 (5=80-100%) | 5 (5=80-100%) | 5 (5=80-100%) | 4 (4=60-79%) | 4 (4=60-79%)
3 | Cc1nn(C)c(=O)c(-c2c(F)ccc(Cl)c2CCc2ccccc2C#N)c1OC(=O)C(C)C [Compound A-3.029] | 5 (5=80-100%) | 4 (4=60-79%) | 2 (2=20-39%) | 3 (3=40-59%) | 3 (3=40-59%) | 2 (2=20-39%) | 2 (2=20-39%) | 5 (5=80-100%) | 5 (5=80-100%) | 1 (1=0-19%) | 4 (4=60-79%) | 2 (2=20-39%)
4 | Cc1nn(C)c(=O)c(-c2c(F)ccc(Cl)c2CCc2cccc(C#N)c2)c1OC(=O)C(C)C [Compound A-3.030] | 5 (5=80-100%) | 5 (5=80-100%) | 4 (4=60-79%) | 3 (3=40-59%) | 4 (4=60-79%) | 5 (5=80-100%) | 4 (4=60-79%) | 5 (5=80-100%) | 5 (5=80-100%) | 2 (2=20-39%) | 5 (5=80-100%) | 5 (5=80-100%)
5 | Cc1nn(C)c(=O)c(-c2c(F)ccc(Cl)c2CCc2ccc(OC(C)(C)C)cc2)c1OC(=O)C(C)C [Compound A-3.035] | 5 (5=80-100%) | 4 (4=60-79%) | 5 (5=80-100%) | 5 (5=80-100%) | 4 (4=60-79%) | 5 (5=80-100%) | 5 (5=80-100%) | 5 (5=80-100%) | 5 (5=80-100%) | 4 (4=60-79%) | 5 (5=80-100%) | 5 (5=80-100%)
6 | Cc1nn(C)c(=O)c(-c2c(F)ccc(Cl)c2CCc2ccc(C#N)cc2)c1OC(=O)C(C)C [Compound A-3.036, [5-[3-Chloro-2-[2-(4-cyanophenyl)ethyl]-6-fluoro-phenyl]-1,3-dimethyl-6-oxo-pyridazin-4-yl] 2-methylpropanoate] | 5 (5=80-100%) | 5 (5=80-100%) | 5 (5=80-100%) | 5 (5=80-100%) | 5 (5=80-100%) | 5 (5=80-100%) | 4 (4=60-79%) | 5 (5=80-100%) | 5 (5=80-100%) | 4 (4=60-79%) | 5 (5=80-100%) | 4 (4=60-79%)
7 | Cc1nn(C)c(=O)c(-c2c(F)ccc(Cl)c2CCc2ccc(C3CC3)cc2)c1OC(=O)C(C)C [Compound A-3.038] | 5 (5=80-100%) | 5 (5=80-100%) | 5 (5=80-100%) | 5 (5=80-100%) | 2 (2=20-39%) | 1 (1=0-19%) | 5 (5=80-100%) | 5 (5=80-100%) | 5 (5=80-100%) | 2 (2=20-39%) | 5 (5=80-100%) | 5 (5=80-100%)
8 | Cc1nn(C)c(=O)c(-c2c(F)ccc(Cl)c2/C=C/c2ccccc2C#N)c1OC(=O)C(C)C [Compound A-4.029] | 4 (4=60-79%) | 2 (2=20-39%) | 0 | 0 | 0 | 0 | 1 (1=0-19%) | 4 (4=60-79%) | 4 (4=60-79%) | 1 (1=0-19%) | 4 (4=60-79%) | 0
9 | Cc1nn(C)c(=O)c(-c2c(F)ccc(Cl)c2/C=C/c2cccc(C#N)c2)c1OC(=O)C(C)C [Compound A-4.030] | 4 (4=60-79%) | 3 (3=40-59%) | 2 (2=20-39%) | 1 (1=0-19%) | 1 (1=0-19%) | 1 (1=0-19%) | 1 (1=0-19%) | 3 (3=40-59%) | 3 (3=40-59%) | 1 (1=0-19%) | 2 (2=20-39%) | 0
